# Test results reported in patent US20240041042A1, “1-(PYRIDYL)-5-AZINYLPYRAZOLE DERIVATIVES, AND THEIR USE FOR CONTROL OF UNDESIRED PLANT GROWTH” (Bayer Aktiengesellschaft, priority 2020, published 2024).
# Key:
# Type in all cases: in vivo
# [1] = system: Avena fatua (AVEFA); assay: Pre-emergence herbicidal action against AVEFA; details: visual scoring after about 3 weeks vs untreated controls
# Procedure, shortened: (§1)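 Pre-emergence soil-surface spray, WP/EC formulation, 0.5% additive, 600 l/ha water, rates of 320 g/ha or lower. Greenhouse, ~3 wk. Visual score, % of untreated control (100% = plants dead, 0% = like control).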
# [2] = system: Setaria viridis (SETVI); assay: Pre-emergence herbicidal action against SETVI
# Procedure, shortened: as §1
# [3] = system: Alopecurus myosuroides (ALOMY); assay: Post-emergence herbicidal action against ALOMY; details: visual rating about 3 weeks after treatment vs untreated controls (100% = plants have died, 0% = like control plants)
# Procedure, shortened: (§2)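 Rates were 320 g/ha or below, applied as aqueous WP/EC spray with 0.5% additive (600 l/ha) onto one-leaf-stage plants. About 3 weeks later in the greenhouse, damage was scored visually against untreated plants on a 0–100% scale, where 100% means plants died.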
# [4] = system: Setaria viridis (SETVI); assay: Post-emergence herbicidal action against SETVI
# Procedure, shortened: as §2
# [5] = system: Polygonum convolvulus (POLCO); assay: Pre-emergence herbicidal action against POLCO
# Procedure, shortened: as §1
# [6] = system: Pharbitis purpurea (PHBPU); assay: Post-emergence herbicidal action against PHBPU
# Procedure, shortened: as §2
# [7] = system: Amaranthus retroflexus (AMARE); assay: Pre-emergence herbicidal action against AMARE; details: visual scoring after about 3 weeks vs untreated controls
# Procedure, shortened: as §1
# [8] = system: Lolium rigidum (LOLRI); assay: Post-emergence herbicidal action against LOLRI
# Procedure, shortened: as §2
# [9] = system: Polygonum convolvulus (POLCO); assay: Post-emergence herbicidal action against POLCO
# Procedure, shortened: as §2
# [10] = system: Abutilon theophrasti (ABUTH); assay: Pre-emergence herbicidal action against ABUTH; details: 100% = plants have died
# Procedure, shortened: as §1
# [11] = Dosage column 320 g/ha (title prints 3200 g/ha), scored visually after about 3 weeks
SMILES,Pre-emergence action against AVEFA in % ([1]; 80 g/ha) [%],Pre-emergence action against AVEFA in % ([1]; 320 g/ha) [%],Pre-emergence action against SETVI in % ([2]; dosage 80 g/ha) [%],Pre-emergence action against SETVI in % ([2]; dosage 320 g/ha) [%],Post-emergence action against ALOMY in % ([3]; 80 g/ha) [%],Post-emergence action against ALOMY in % ([3]; 320 g/ha) [%],Post-emergence action against SETVI in % ([4]; dosage 320 g/ha) [%],Pre-emergence action against POLCO in % ([5]; dosage 80 g/ha) [%],Pre-emergence action against POLCO in % ([5]; dosage 320 g/ha) [%],Post-emergence action against PHBPU in % ([6]; dosage 80 g/ha) [%],Post-emergence action against PHBPU in % ([6]; dosage 320 g/ha) [%],Pre-emergence action against AMARE in % ([7]; 80 g/ha) [%],Pre-emergence action against AMARE in % ([7]; 320 g/ha) [%],Post-emergence action against LOLRI in % ([8]; dosage 80 g/ha) [%],Post-emergence action against LOLRI in % ([8]; dosage 320 g/ha) [%],Post-emergence action against POLCO in % ([9]; dosage 80 g/ha) [%],Post-emergence action against POLCO in % ([9]; dosage 320 g/ha) [%],"Pre-emergence action against ABUTH [10, 11] [%]","Pre-emergence action against ABUTH ([10]; 80 g/ha, scored visually after about 3 weeks vs untreated controls, 0% = like control plants) [%]",Post-emergence action against SETVI in % ([4]; dosage 80 g/ha) [%]
COC(=O)COc1nn(-c2ncccc2F)c(-c2cncc(F)c2)c1C1CC1 [Example I-167],90,90,100,100,90,90,80,90,90,90,90,100,100,80,80,80,80,90,,
CCOC(=O)COc1nn(-c2ncccc2F)c(-c2cncc(F)c2)c1C1CC1 [Example I-174],,90,90,100,90,90,,90,100,80,90,100,100,80,80,,80,90,,
O=C(O)COc1nn(-c2ncccc2F)c(-c2cncc(F)c2)c1C1CC1 [Example I-175],,90,90,100,90,90,80,90,90,80,90,100,100,80,80,80,80,90,80,
C[C@@H](Oc1nn(-c2nc(F)ccc2F)c(-c2cncc(F)c2)c1C1CC1)C(=O)O [Example I-180],90,90,100,100,90,90,90,90,100,,,100,100,90,90,80,90,80,,80
COC(=O)C(C)NC(=O)[C@@H](C)Oc1nn(-c2ccccn2)c(-c2cncc(F)c2)c1Br (stereo partly shown) [Example I-190],,90,90,100,80,100,80,90,90,,,90,100,90,90,80,80,80,,80
COC(=O)C(C)COC(=O)[C@@H](C)Oc1nn(-c2ccccn2)c(-c2cncc(F)c2)c1Cl (stereo partly shown) [Example I-198],,90,100,100,80,80,80,90,90,80,90,100,100,80,80,,,90,,80
